The values below are quoted from earlier work in US12201674B2 (EDIX SA, priority 2018, dated 2025).

Data set [1] addresses human somatostatin receptors (SSTR) 2 (Homo sapiens, UniProt P30874).
Data set [2] has as its target SSTR 4 (Homo sapiens, UniProt P31391).
In data set [3] the target is SSTR 3 (Homo sapiens, UniProt P32745).
Data set [4] has as its target SSTR 1 (Homo sapiens, UniProt P30872).

Sequence of SSTR 1 (P30872 whole entry): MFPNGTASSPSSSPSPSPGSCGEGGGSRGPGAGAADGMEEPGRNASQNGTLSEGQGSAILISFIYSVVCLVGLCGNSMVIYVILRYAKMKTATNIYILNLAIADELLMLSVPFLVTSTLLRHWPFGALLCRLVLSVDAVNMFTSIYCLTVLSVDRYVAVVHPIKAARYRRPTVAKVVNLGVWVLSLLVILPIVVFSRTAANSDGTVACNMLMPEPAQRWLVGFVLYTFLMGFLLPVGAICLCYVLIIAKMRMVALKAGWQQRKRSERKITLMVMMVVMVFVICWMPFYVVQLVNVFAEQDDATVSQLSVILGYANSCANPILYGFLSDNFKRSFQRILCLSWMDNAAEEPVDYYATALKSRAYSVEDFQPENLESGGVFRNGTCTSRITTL
Sequence of SSTR 3 (P32745 whole entry): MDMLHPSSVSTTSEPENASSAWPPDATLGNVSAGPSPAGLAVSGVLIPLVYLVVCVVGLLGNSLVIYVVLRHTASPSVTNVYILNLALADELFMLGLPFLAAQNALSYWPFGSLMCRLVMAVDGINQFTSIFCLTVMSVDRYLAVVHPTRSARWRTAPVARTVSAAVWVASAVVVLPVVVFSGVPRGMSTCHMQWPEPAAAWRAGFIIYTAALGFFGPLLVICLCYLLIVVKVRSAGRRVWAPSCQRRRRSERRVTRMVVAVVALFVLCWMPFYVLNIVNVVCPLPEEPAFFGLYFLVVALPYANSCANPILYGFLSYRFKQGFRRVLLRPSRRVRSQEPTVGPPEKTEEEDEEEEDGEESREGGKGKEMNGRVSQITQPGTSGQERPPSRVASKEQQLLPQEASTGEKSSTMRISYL
Sequence of SSTR 4 (P31391 whole entry): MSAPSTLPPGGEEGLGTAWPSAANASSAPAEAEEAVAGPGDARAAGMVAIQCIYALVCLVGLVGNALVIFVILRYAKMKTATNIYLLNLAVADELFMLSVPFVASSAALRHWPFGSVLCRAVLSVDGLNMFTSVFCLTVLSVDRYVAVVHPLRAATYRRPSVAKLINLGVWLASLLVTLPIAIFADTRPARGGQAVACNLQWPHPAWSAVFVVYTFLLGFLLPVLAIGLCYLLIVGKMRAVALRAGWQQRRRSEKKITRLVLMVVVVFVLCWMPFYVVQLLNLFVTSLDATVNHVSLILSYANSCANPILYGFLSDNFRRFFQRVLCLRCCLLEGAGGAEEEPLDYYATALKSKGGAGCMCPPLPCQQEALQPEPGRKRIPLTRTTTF
Sequence of human somatostatin receptors (SSTR) 2 (P30874 whole entry): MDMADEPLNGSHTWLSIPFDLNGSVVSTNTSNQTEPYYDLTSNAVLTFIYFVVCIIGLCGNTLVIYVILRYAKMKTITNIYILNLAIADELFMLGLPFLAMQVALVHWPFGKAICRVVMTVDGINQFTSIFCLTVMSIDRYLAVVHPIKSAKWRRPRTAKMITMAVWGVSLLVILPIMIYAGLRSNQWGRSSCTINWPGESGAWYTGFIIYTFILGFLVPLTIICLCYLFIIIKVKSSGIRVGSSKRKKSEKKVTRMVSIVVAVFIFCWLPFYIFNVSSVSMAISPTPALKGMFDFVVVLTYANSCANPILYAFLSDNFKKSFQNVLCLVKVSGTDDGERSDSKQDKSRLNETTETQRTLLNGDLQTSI

For `CC(C)[C@@H]1NC(=O)[C@H](CCCCN)NC(=O)[C@@H](Cc2c[nH]c3ccccc23)NC(=O)[C@H](Cc2ccc(O)cc2)NC(=O)[C@@H](NC(=O)[C@H](N)Cc2ccc3ccccc3c2)CSSC[C@@H](C(=O)N[C@H](C(N)=O)[C@@H](C)O)NC1=O` [lanreotide], the affinity entry in data set [1] is reported as “high affinity”; in data set [2], “low affinity”; in data set [3] it was “low affinity”; in data set [4] it was “low affinity”.
